# [ ]: non-standard residue; d: D form. Tic = O=C(O)[C@@H]1Cc2ccccc2CN1; Abu = CC[C@H](N)C(=O)O
# Assays:
# antral follicles = test: envisaged case: patient with polycystic ovary syndrome treated with lanreotide acetate; type: in vivo, women; conditions: 120 mg/month, 4th month of treatment
# [1] = system: primordial follicles of ewe ovarian cortex; test: culture of ovarian cortex fragments of adult ewes for 10 days; type: cell-based; conditions: 10 days culture; for start of growth of the primordial follicles: vs control (FIG. 3)
# Description: Ovaries of adult ewes are collected immediately after slaughter. The ovaries are placed in an organ transport medium without serum (X-vivo, Bio Whittaker, Walkersville, Md., USA) at 10° C. and transported to the laboratory. Approximately 1 h after removal, the cortex is isolated from the medulla then fractionated into slices of 2 mm thickness (1 cm^2, average weight of 212 mg) after rinsing in new X-vivo. The cortex fragments are cultured in an oven under 5% oxygen for 10 days in well plates in the presence of DMEM. The medium is changed every 2 days.
# The procedure used is the same as for Example 1, except that the somatostatin is replaced with one of its agonist analogues, namely the synthetic peptide of formula c[Tic-Tyr-DTrp-Lys-Abu-Phe] (hereafter AG1 peptide).
# The procedure used is the same as for Example 1, except that the somatostatin is replaced by one of its antagonist analogues, namely the synthetic peptide of formula Cpa-c(DCys-3-Pal-DTrp-NMeLys-Thr-Cys)-2-Nal-NH2 (hereafter ANT1 peptide).
molecule,measurement,setting,value
CC(C)[C@@H]1NC(=O)[C@H](CCCCN)NC(=O)[C@@H](Cc2c[nH]c3ccccc23)NC(=O)[C@H](Cc2ccc(O)cc2)NC(=O)[C@@H](NC(=O)[C@H](N)Cc2ccc3ccccc3c2)CSSC[C@@H](C(=O)N[C@H](C(N)=O)[C@@H](C)O)NC1=O [lanreotide acetate],ultrasound of the ovaries: ovarian volume and number of antral follicles,antral follicles,reduction in ovarian volume and in the number of antral follicles
Cpa-c(DCys-3-Pal-DTrp-NMeLys-Thr-Cys)-2-Nal-NH2 [ANT1 peptide],start of growth of the primordial follicles,"[1]; ANT1 peptide 10^−6M, FIG. 5",accentuates
cyclo([Tic]Y[dW]K[Abu]F) [AG1 peptide],number of primary follicles,"[1]; AG1 peptide 10^−9M, FIG. 4",absence of increase
same,number of primordial follicles,"[1]; AG1 peptide 10^−9M, FIG. 4",maintenance over time
same,start of growth of the primordial follicles,"[1]; AG1 peptide 10^−9M, FIG. 4",very significantly inhibits

# Source: patent US20100152102A1, “USE OF SO[…] ONE OF ITS ANALOGUES FOR PREPARING A […] TO REGULATE THE OVARIAN […] IN NON-[…]” (Preglem S.A., priority 2003, published 2010)
